Data set [1] has as its target T1, glucocerebrosidase (Gcase) (Homo sapiens, UniProt P04062).
T1 sequence (P04062 40-536): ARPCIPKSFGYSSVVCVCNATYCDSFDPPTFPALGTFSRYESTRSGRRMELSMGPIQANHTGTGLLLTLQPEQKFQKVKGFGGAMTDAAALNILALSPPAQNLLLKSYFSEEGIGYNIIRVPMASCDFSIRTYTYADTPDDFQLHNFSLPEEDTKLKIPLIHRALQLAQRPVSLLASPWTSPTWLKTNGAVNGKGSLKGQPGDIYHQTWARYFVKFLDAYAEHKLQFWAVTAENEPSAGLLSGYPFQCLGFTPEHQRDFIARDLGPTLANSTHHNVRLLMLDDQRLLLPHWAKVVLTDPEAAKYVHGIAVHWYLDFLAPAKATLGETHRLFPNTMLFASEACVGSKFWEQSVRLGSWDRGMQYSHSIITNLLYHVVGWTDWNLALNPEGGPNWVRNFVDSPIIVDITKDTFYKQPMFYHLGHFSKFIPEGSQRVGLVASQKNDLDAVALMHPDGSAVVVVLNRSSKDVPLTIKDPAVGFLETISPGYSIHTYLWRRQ
The data set is described as follows: Glucocerebrosidase (Gcase) activation assay, 4-methylumbelliferyl-beta-D-glucopyranoside substrate, fluorescence. The following applies: 0.25 h, 10 nM GCase, 100 nM saposin C; for activation at 0.1 µM: pH 4.7, test compound at 0.1 μM, read-out: Percent Gcase Activation 0.1 μM Test Compound; for activation at 1 µM: pH 4.7, test compound at 1.0 μM, read-out: Percent Gcase Activation 1 μM Test Compound. It is filed as biochemical. The procedure, abridged: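 10 nM GCase with 100 nM saposin C in Triton/phosphatidylserine micelles (citrate-phosphate, pH 4.7), pre-incubated 30 min at room temperature with compound, then 2 mM 4-methylumbelliferyl-β-D-glucoside stock mixed 1:1; 15 min reaction, stopped with glycine pH 12.5, fluorescence at 365/440 nm. Activation scored at 1.0 and 0.1 μM; 8-point curves from 5 μM top.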

A short description of data set [2]: Compound solubility in water. Type of data set: physicochemical.

≈ marks a conversion by molar mass, not a printed value.

These results are taken from patent US11124516B2, “Pyrrolo[1,2-A]pyrimidinyl carboxamide compounds and their use in the treatment of medical disorders” (Bial—Biotech Investments, Inc., priority 2016, dated 2021).

For the molecule `Cc1cc(C)n2ccc(C(=O)NC(C)c3cn(C)c4ccccc34)c2n1` (stereo not drawn) [IV-49], in data set [1], the activation at 0.1 µM was 10 to 20% and the activation at 1 µM was greater than 60%. The amount in solution in data set [2] (solubility) came to 2.1 µg/mL (≈ 6.06 µM).

Turning to `CCc1cc(C)n2ccc(C(=O)N[C@H]3CC[C@H](OC(C)(C)C)CC3)c2n1` [IV-6], in data set [1], the activation at 0.1 µM was 10 to 20% and the activation at 1 µM is greater than 60%. Further, the solubility – broadly, the dissolved amount per volume that the medium holds – in data set [2] worked out at 7.9 µg/mL (≈ 22.1 µM).

As for `CCc1ccc(C(C)NC(=O)c2ccn3c(C)cc(C)nc23)cc1` (stereo not drawn) [IV-44], in data set [1], the activation at 0.1 µM was greater than 20% and the activation at 1 µM is greater than 60%. This molecule also showed a solubility in data set [2] of 2 µg/mL (≈ 6.22 µM).

For `Cc1cc(C(F)F)n2ccc(C(=O)N[C@@H](C)C3CC3)c2n1` [III-8], in data set [1], the activation at 0.1 µM is greater than 20% and the activation at 1 µM was greater than 60%. In data set [2], the concentration in solution (solubility) came to 20.1 µg/mL (≈ 68.5 µM).

Turning to `Cc1cc(C)n2ccc(C(=O)NC(CC(C)C)c3cccnc3)c2n1` (stereo not drawn) [IV-52], in data set [1], the activation at 0.1 µM is less than 10% and the activation at 1 µM is 30 to 60%. In data set [2], this molecule came in with a solubility of 17.3 µg/mL (≈ 51.4 µM).

For `Cc1cc(C)n2ccc(C(=O)NC(C)c3ccc4c(c3)CC(C)O4)c2n1` (stereo not drawn) [IV-79], in data set [1], the activation at 0.1 µM was greater than 20% and the activation at 1 µM is greater than 60%. Also, in data set [2], the concentration in solution (solubility) came to 2.6 µg/mL (≈ 7.44 µM).

As to `Cc1nc2c(C(=O)N[C@@H](C)C3CC3)ccn2c(C)c1-c1ccc(F)cc1` [III-52], in data set [1], the activation at 0.1 µM was less than 10% and the activation at 1 µM was less than 30%. The same molecule yielded a solubility in data set [2] of 1.7 µg/mL (≈ 4.84 µM).

Consider `Cc1cc(NC2CC3CCC(C2)O3)nc2c(C(=O)NC(C)(C)C3CC3)ccn12` (stereo not drawn) [III-45], for which, in data set [1], the activation at 0.1 µM was less than 10% and the activation at 1 µM was in the range of 30 to 60%. The same molecule came in with a solubility in data set [2] of 12.3 µg/mL (≈ 32.2 µM).

As to `CCC(NC(=O)c1ccn2c(C)cc(C)nc12)c1cccc(C)n1` (stereo not drawn) [IV-55], in data set [1], the activation at 0.1 µM is less than 10% and the activation at 1 µM was less than 30%. Besides, the solubility in data set [2] was determined as 17.6 µg/mL (≈ 54.6 µM).

In the case of `Cc1cc(Cl)nc2c(C(=O)NC(C)(C)C3CC3)ccn12` [III-11], in data set [1], the activation at 0.1 µM was greater than 20% and the activation at 1 µM was greater than 60%. In addition, the solubility in data set [2] was found to be 1.1 µg/mL (≈ 3.77 µM).

As to `Cc1cc(C)n2ccc(C(=O)NC(C)C3(c4ccccc4)CCCC3)c2n1` (stereo not drawn) [IV-73], in data set [1], the activation at 0.1 µM was greater than 20% and the activation at 1 µM is greater than 60%. In data set [2], this molecule gave a solubility of 1.5 µg/mL (≈ 4.15 µM).

Consider `Cc1cc(C)n2ccc(C(=O)N[C@@H](C)c3cccc(Cl)c3)c2n1` [IV-28], for which, in data set [1], the activation at 0.1 µM lay in the range of 10 to 20% and the activation at 1 µM was greater than 60%. The molecule also displayed a solubility in data set [2] of 0.7 µg/mL (≈ 2.14 µM).

On to `Cc1nc2c(C(=O)N[C@H]3CC[C@H](OC(C)(C)C)CC3)ccn2c2c1CCC2` [III-70], for which, in data set [1], the activation at 0.1 µM was less than 10% and the activation at 1 µM was less than 30%. The molecule also registered a solubility in data set [2] of 1.5 µg/mL (≈ 4.06 µM).

Turning to `Cc1cc(-c2cccnc2)nc2c(C(=O)N[C@H]3CC[C@H](OCC(C)(C)C)CC3)ccn12` [III-60], in data set [1], the activation at 0.1 µM is greater than 20% and the activation at 1 µM is greater than 60%. In data set [2], this molecule registered a solubility of 1.3 µg/mL (≈ 3.09 µM).

With `COCc1cc(C(F)F)nc2c(C(=O)NC(C)(C)C3CC3)ccn12` [III-3], in data set [1], the activation at 0.1 µM was greater than 20% and the activation at 1 µM is greater than 60%. This molecule also had a solubility in data set [2] of 3.8 µg/mL (≈ 11.3 µM).

Take `Cc1cc(NC2CCOCC2)nc2c(C(=O)NC(C)(C)C3CC3)ccn12` [III-38]: in data set [1], the activation at 0.1 µM is 10 to 20% and the activation at 1 µM was greater than 60%. In addition, the concentration in solution in data set [2] (solubility) came to 10.1 µg/mL (≈ 28.3 µM).

Regarding `CC(C)(NC(=O)c1ccn2ccc(-c3ccc(F)cc3)nc12)C1CC1` [III-46], in data set [1], the activation at 0.1 µM is less than 10% and the activation at 1 µM lay in the range of 30 to 60%. Besides, in data set [2], the concentration in solution (solubility) was 0.3 µg/mL (≈ 0.889 µM).

On to `Cc1cc(N2CCOCC2)nc2c(C(=O)NC(C)(C)C3CC3)ccn12` [III-35], for which, in data set [1], the activation at 0.1 µM lay in the range of 10 to 20% and the activation at 1 µM is greater than 60%. The molecule further displayed a solubility in data set [2] of 14 µg/mL (≈ 40.9 µM).

Consider `Cc1cc(-c2cocn2)nc2c(C(=O)N[C@H]3CCCc4ccccc43)ccn12` [III-28], for which, in data set [1], the activation at 0.1 µM is less than 10% and the activation at 1 µM was 30 to 60%. The same molecule showed a solubility in data set [2] of 1.4 µg/mL (≈ 3.76 µM).
